Values after ≈ are worked out from the molar mass of the structure shown. Like-named read-outs stand apart in the source and are kept apart here. Peptide text beside a SMILES is read from it. * marks the point of attachment. Cbz = O=C(OCc1ccccc1)*
Key:
[1] = tested on: PC12 cells that express mutant G93A SOD1; assay: High throughput cytotoxicity protection assay (PC12 Protection Assay); assay type: cell-based
Excerpt: Cultured cells are utilized to conduct high throughput assays for compounds that protect against mutant SOD1-induced cytotoxicity. Two assays are used: first, in the cytotoxicity protection assay, compounds are screened for their ability to protect cells from the cytotoxic effects of aggregated mutant SOD1, irrespective of mechanism of drug action. Second, in the protein aggregation assay, compounds are screened for their ability to reduce aggregation of mutant SOD1. The high throughput cytotoxicity protection assay is the primary screen and compounds active in the primary screen (and their analogs) move forward into the secondary screen for protein aggregation.
(§1) The high throughput cytotoxicity protection assay was carried out in PC12 cells that express mutant G93A SOD1 as a YFP fusion protein from a doxycycline-inducible promoter (Matsumoto et al., J. Cell. Biol. 2005, 171, 75). […] This idea was tested by examining the sensitivity of PC12 cells to SOD1 aggregates in the presence and absence of proteasome inhibitor MG132. PC12 cells expressing no SOD1, wild type SOD1, G85R SOD1 or G93A SOD1 were grown with or without MG132 (FIG. 1). Cells expressing no SOD1, wild type SOD1 and G85R SOD1 were relatively insensitive to MG132, with an IC50 of approximately 400 nM. […] In these cells, protein aggregation was detected after 24 h and loss of cell viability was detected at approximately 48 h. […] The ability of protein aggregates to induce cell death was examined by treating G93A SOD1-expressing cells with MG132 for 24 h, removing the MG132 by washing and assaying cell viability after another 24 h. Because the loss of cell viability was similar following MG132 removal (FIG. 1, part C), it is likely that mutant SOD1 aggregates contribute directly to cytotoxicity in PC12 cells.
(§2) PC12 cells expressing G93A SOD1 were treated with 100 nM MG132 with or without co-treatment with geldanamycin or radicicol. […] Statistical analysis of the data produced a Z′ value of 0.55, which would predict good performance as a positive control in a high throughput screen (Zhang et al., J. Biomol. Screen 1999, 4(2), 67-73).

[2] = tested on: primary cortical neurons; assay: Neuronal penetration assay (protection from MG132 toxicity); assay type: cell-based; conditions: for Different from control at 5 SD*: primary cortical neurons, toxic dose of MG132, 5 SD = Standard Deviation (5σ)
Method: Neurons are a highly differentiated cell type, and it has been commonly observed that many chemical structures are unable to penetrate into these cells. In many embodiments, a drug used to treat a neurodegenerative disease should desirably penetrate into neurons.
A neuronal penetration assay was developed as follows. […] In order to determine if this compound could protect primary cortical neurons from MG132 toxicity primary cortical neurons were treated with a toxic dose of MG132 together with various concentrations of 5-(3,5-bis(trifluoromethyl)phenyl)cyclohexane-1,3-dione. […] Analogs of 5-(3,5-bis(trifluoromethyl)phenyl)cyclohexane-1,3-dione were then prepared and tested to determine whether chemical modifications would lead to a compound with neuronal cell penetrating ability. […] As summarized in Table 2 below, these analogs also retained protective activity against mutant SOD1 toxicity.

[3] = In vivo pharmacological properties
[4] = tested on: PC12 cells expressing G93A SOD1; assay: MG132 sensitivity, cell survival by viability stain calcein-AM; assay type: cell-based; conditions: for toxicity (cell survival): 100 nM
Method: (§3) FIGS. 1A-C. Proteasome inhibition is selectively toxic to PC12 cells expressing mutant G93A SOD1. Cell survival was determined using the viability stain calcein-AM.
as §1

[5] = tested on: PC12 cells expressing no SOD1, wild type SOD1 and G85R SOD1; assay: as above; assay type: cell-based; conditions: Rattus norvegicus, PC-12, read-out: IC50 (loss of cell viability)
Method: as §3, §1

[6] = tested on: PC12 cells expressing G85R SOD1; assay: Mutant SOD1 direct protein aggregation assay; assay type: cell-based
Excerpt: Compounds that are active in the above assay could theoretically protect against mutant SOD1-induced cytotoxicity through a number of mechanisms, including the following: 1) Compounds could nonspecifically block or reverse protein aggregation via chaperone induction, as observed for radicicol and geldanamycin 2) Compounds could block or reverse the aggregation of a specific aggregated protein form 3) Compounds could interfere with an event downstream of protein aggregation that plays a critical role in mutant SOD1-induced cytotoxicity (e.g., proteasome function). 4) Compounds could act directly on SOD1 in a manner that prevents mutant SOD1 aggregation. These possibilities were tested using an assay that directly measures protein aggregation. In addition, unlike the high throughput cytotoxicity protection assay, the protein aggregation assay is based on G85R SOD1; this broadens the scope of the screening strategy, and should eliminate compounds with highly specific activity (i.e., G93A SOD1 limited) against protein aggregation.
(§4) In PC12 cells that express wild-type SOD1, SOD1 was diffusely localized throughout the cell (Matsumoto et al., J. Cell. Biol 2005, 171(1), 75-85). […] Therefore, these effects are likely to be due to MG132-induced proteasome inhibition, and not due to an off-target effect of MG132.
(§5) The identification of a positive control is a crucial step in assay development. Thus, PC12 cells expressing G85R or G93A mutant SOD1 were treated with MG132 to induce protein aggregation, and then co-treated with candidate chemical suppressors of protein aggregation. […] Both compounds induce heat shock transcription factor HSF-1, which in turn induces the heat shock response (FIG. 4). Treatment with radicicol reduced the proportion of cells with aggregates from 75% to 25%, a sufficient difference to allow visual scoring for compounds with efficacy equal to or greater than radicicol.
To allow this assay to be used in a high-throughput manner, a Cellomics Arrayscan® high content microscopy system was used for screening and quantification. […]

[7] = tested on: PC12 cells expressing G93A mutant SOD1; assay: Mutant SOD1 direct protein aggregation assay; assay type: cell-based
Method: as §2, §4, §5

[8] = tested on: PC12 cells expressing wild-type SOD1; assay: Mutant SOD1 direct protein aggregation assay; assay type: cell-based
Excerpt: as §4

[9] = Solubility; assay type: physicochemical; conditions: aqueous solution
Method: Because compounds are stored in DMSO, it is necessary to determine aqueous solubility of initial hit compounds and their analogs. High solubility in aqueous solution is necessary for high GI absorption, bioavailability, and for chemical formulation. Compounds should be soluble in aqueous solution at >10 μg/ml. Solubility of >50 μg/ml is preferred.

[10] = Human metabolic potential; assay type: in vitro ADME
Method: (§6) Liver Cytochrome P450 (CYP450) enzymes are the major route for xenobiotic metabolism and microsomal and hepatocyte stability is the best predictor of pharmacokinetic half-life. Cross-species comparisons of metabolism in liver microsomes can predict potential issues with liver toxicity in humans. Selected active compounds are tested in liver microsomes from efficacy species (mouse), toxicity species (rat, dog, monkey), and humans for metabolic stability.

[11] = Mouse metabolic potential; assay type: in vitro ADME
Method: as §6

[12] = Plasma stability; assay type: in vitro ADME
Method: Plasma stability of active compounds is assessed in efficacy species (mouse), toxicity species (rat, dog, monkey), and human cells.

[13] = tested on: Caco-2; assay: Caco-2 permeability; assay type: in vitro ADME
Method: High membrane permeability is required for effective GI absorption and optimal bioavailability. Passive permeability is typically assessed in the PAMPA artificial membrane assay (Kansy et al., J. Med. Chem. 2002, 45(8), 1712-1722). Cell-based permeability determinations using the Caco-2 cell assay are more resource intensive but more predictive of active transport or efflux in vivo (Artursson et al., Adv. Drug. Deliv. Rev. 2001, 46(1-3), 27-43). Caco-2 assays are performed as needed during SAR development.

[14] = Rattus norvegicus, PC-12; read-out: PC12 Protection Assay (Average EC50)

Question: For O=C1CC(=O)CC(C2CC2c2cc(C(F)(F)F)cc(C(F)(F)F)c2)C1 (stereo not drawn), which EC50 [1, 14] is on record?
Answer: ~3500 nM

Question: What about the “Different from control at 5 SD*” value [2] of the same compound?
Answer: YES

Question: With CCCCCCCCCCC(=O)OC1=CC(=O)CC(c2cc(C(F)(F)F)cc(C(F)(F)F)c2)C1 (stereo not drawn) as the compound, how does the EC50 [1, 14] read?
Answer: ~1500 nM

Question: With CC(Oc1cc(C(F)(F)F)cc(C(F)(F)F)c1)C1CC(=O)CC(=O)C1 (stereo not drawn) as the compound, how does the EC50 ([1]; Rattus norvegicus, PC-12, read-out: PC12 Protection Assay (Average EC50)) read?
Answer: ~4000 nM

Question: And the “Different from control at 5 SD*” value [2]?
Answer: YES

Question: With O=C1CC(=O)CC(c2cc(C(F)(F)F)cc(C(F)(F)F)c2)C1 [5-(3,5-bis(trifluoromethyl)phenyl)cyclohexane-1,3-dione] as the compound, how does the EC50 ([1]; Rattus norvegicus, PC-12; read-out: potency) read?
Answer: ~1500 nM

Question: And the “protection of cultured PC12 cells / protective activity against mutant SOD1 toxicity” value ([1]; toxic effects of MG132)?
Answer: protects cultured PC12 cells from the toxic effects of MG132

Question: And the “protection of primary cortical neurons from MG132 toxicity” value ([2]; various concentrations, FIG. 6)?
Answer: no dose of this compound was effective in protecting the primary cortical neurons

Question: And the half-life ([3]; blood)?
Answer: ~3.5 h

Question: What about the “blood brain barrier penetration” value ([3]; in vivo) of the same compound?
Answer: penetration of the blood brain barrier

Question: And the “volume of distribution in vivo” value ([3]; in vivo)?
Answer: surprisingly small volume of distribution

Question: And the oral availability ([3]; in vivo, po)?
Answer: good oral availability

Question: Which results are given for CC(C)C[C@@H](C=O)NC(=O)[C@H](CC(C)C)NC(=O)[C@H](CC(C)C)NC(=O)OCc1ccccc1 [MG132] (Cbz-Leu-Leu-Leu-aldehyde)?
Answer: toxicity (cell survival) ([4]; 24 hr, any of the cell lines): no toxicity; toxicity (cell survival) ([4]; after 48 hours): selectively toxic to the G93A SOD1 cell line; sensitivity of G93A SOD1 cells relative to the other cell lines ([4]; G93A SOD1 vs no SOD1, wild type SOD1, G85R SOD1 cells): approximately 5 fold; IC50 ([4]; Rattus norvegicus, PC-12, read-out: IC50 (loss of cell viability)): ~75 nM; IC50 [5]: ~400 nM; cells containing protein aggregates after treatment ([6]; cells expressing G85R SOD1): up to 75%; cells with protein aggregates following treatment ([7]; cells expressing G93A mutant SOD1): 75%; protein aggregation after treatment [8]: no aggregation was observed

Question: With CC(C)C[C@H](NC(=O)[C@H](Cc1ccccc1)NC(=O)c1cnccn1)B(O)O [bortezomib] as the compound, how does the “sensitivity of PC12 cell lines to proteasome inhibitor, compared with MG132” value [4] read?
Answer: Qualitatively similar results

Question: For O=C1CC(=O)CC(c2cc(C(F)(F)F)cc(C(F)(F)F)c2)C1 [drawing 215], which EC50 [1, 14] is on record?
Answer: ~1500 nM

Question: With O=C1CC(=O)CC(c2cc(C(F)(F)F)cc(C(F)(F)F)c2)C1 [drawing 217] as the compound, how does the EC50 ([1]; Rattus norvegicus, PC-12; read-out: Potency (EC50)) read?
Answer: 700 nM

Question: What about the solubility [9] of the same compound?
Answer: 500 µM (≈ 162 µg/mL)

Question: What about the “Human Metabolic Potential” value [10] of the same compound?
Answer: low

Question: And the half-life ([10]; liver microsomes, read-out: Human Metabolic Potential T1/2)?
Answer: > 3 h

Question: And the “Mouse Metabolic Potential” value [11]?
Answer: low

Question: And the half-life ([11]; liver microsomes, read-out: Mouse Metabolic Potential T1/2)?
Answer: > 3 h

Question: What about the “Plasma Stability” value [12] of the same compound?
Answer: medium

Question: What about the Caco-2 predicted permeability [13] of the same compound?
Answer: high predicted permeability

Question: What about the Caco-2 A − B ([13]; A − B) of the same compound?
Answer: 38 ×10⁻⁶ cm/s

Question: For C[C@@H]1C[C@H]2O[C@@H]2/C=C\C=C\C(=O)Cc2c(Cl)c(O)cc(O)c2C(=O)O1 [radicicol], which “cell viability of G93A SOD1 cells under MG132” value ([1]; co-treatment with 100 nM MG132) is on record?
Answer: increased cell viability in a dose-dependent manner

Question: And the “cell viability of G93A SOD1 cells under MG132” value ([1]; co-treatment with 100 nM MG132; listed as Radicicol)?
Answer: protects

Question: What about the “suppression of MG132-induced mutant SOD1 aggregation” value ([6]; G93A or G85R SOD1 cells, MG132 co-treatment) of the same compound?
Answer: aggregates are reduced

Question: And the “proportion of cells with aggregates on co-treatment” value ([6]; PC12 cells expressing G85R or G93A mutant SOD1, MG132 co-treatment, 75% without)?
Answer: 25%

Question: And the “formation of protein aggregates” value ([7]; G93A SOD1 cells, 100 nM MG132)?
Answer: reduced formation of protein aggregates

— patent publication US9593069B2, “Cyclohexane-1,3-diones for use in the treatment of amyotrophic lateral sclerosis” (Northwestern University, priority 2009, dated 2017)
